Measurements taken from patent publication US8927500B2, “Peptidomimetic macrocycles” (Aileron Therapeutics, Inc., priority 2012, dated 2015).
Like-named read-outs stand apart in the source and are kept apart here.

What was measured:
MDM2 = MDM2 (Homo sapiens, UniProt Q00987); assay: Competitive fluorescence polarization assay for MDM2; type: binding; conditions: competitive FP assay, MDM2
Method: Dilute 1 mM (in 100% DMSO) of FAM labeled linear peptide with DMSO to 100 μM (dilution 1:10). Then, dilute from 100 μM to 10 μM with water (dilution 1:10) and then dilute with FP buffer from 10 μM to 40 nM (dilution 1:250). This is the working solution which will be a 10 nM concentration in well (dilution 1:4). […] Then, dilute from 5 mM to 500 μM with H2O (dilution 1:10) and then dilute with FP buffer from 500 μM to 20 μM (dilution 1:25).
Dilute 1 mM (in 100% DMSO) of FAM labeled linear peptide with DMSO to 100 μM (dilution 1:10). Then, dilute from 100 μM to 10 μM with water (dilution 1:10) and then dilute with FP buffer from 10 μM to 40 nM (dilution 1:250). This is the working solution which will be a 10 nM concentration in well (dilution 1:4). […] Dilute 10 mM (in 100% DMSO) with DMSO to 5 mM (dilution 1:2). Then, dilute from 5 mM to 500 μM with H2O (dilution 1:10) and then dilute with FP buffer from 500 μM to 20 μM (dilution 1:25). […] Transfer 10 μl of serial diluted unlabeled peptides to each well which is filled with 20 μl of 300 nM of protein. • 7. Add 10 μl of 10 nM (4×) of FAM labeled peptide into each well and incubate for 3 hr to read.

MDMX = target: T1, MDMX (Homo sapiens, UniProt O15151); assay: Competitive fluorescence polarization assay for MDMX; type: binding; conditions: competitive FP assay
T1 sequence (O15151 1-125): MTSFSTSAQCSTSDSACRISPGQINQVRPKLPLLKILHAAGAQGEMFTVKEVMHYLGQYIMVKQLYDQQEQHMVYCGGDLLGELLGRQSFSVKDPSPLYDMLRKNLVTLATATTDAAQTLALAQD

Chain of MDM2 (Q00987 1-125): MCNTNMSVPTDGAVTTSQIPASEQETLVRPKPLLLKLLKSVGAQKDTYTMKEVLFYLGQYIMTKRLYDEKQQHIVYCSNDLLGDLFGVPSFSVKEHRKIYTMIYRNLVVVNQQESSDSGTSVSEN

| SMILES | IC50 (MDM2; read-out: IC50 (MDM2)) [µM] | Ki (MDM2; read-out: Ki (MDM2)) [µM] | IC50 (MDMX; read-out: IC50 (MDMX)) [µM] | Ki (MDMX; read-out: Ki (MDMX)) [µM] | IC50 (MDM2; IC50 (MDM2)) [µM] | Ki (MDM2; Ki (MDM2)) [µM] | IC50 (MDMX; IC50 (MDMX)) [µM] | Ki (MDMX; Ki (MDMX)) [µM] |
| --- | --- | --- | --- | --- | --- | --- | --- | --- |
| CCCC[C@H](NC(=O)[C@H](C)NC(=O)[C@H](C)NC(=O)[C@]1(C)CCCC=CCCCCCC[C@@](C)(NC(=O)[C@H](Cc2ccccc2)NC(=O)[C@@H](NC(=O)[C@H](CC(C)C)NC(C)=O)[C@@H](C)O)C(=O)N[C@@H](C)C(=O)N[C@@H](Cc2ccc(O)cc2)C(=O)N[C@@H](Cc2c[nH]c3ccccc23)C(=O)N[C@@H](C)C(=O)N[C@@H](CCC(N)=O)C(=O)N[C@@H](CC(C)C)C(=O)N1)C(=O)N[C@H](CC(C)C)C(N)=O (single isomer, unassigned) [compound 85] | 0.01 to 0.1 | < 0.01 | 0.1 to 1 | 0.01 to 0.1 | – | – | – | – |
| CC(=O)N[C@@H](CC(C)C)C(=O)N[C@H](C(=O)N[C@@H](Cc1ccccc1)C(=O)N[C@]1(C)CCCCCCC=CCCC[C@@](C)(C(=O)N[C@@H](CO)C(=O)N[C@H](C(=O)NCC(N)=O)C(C)C)NC(=O)[C@H](CC(C)C)NC(=O)[C@H](CCC(N)=O)NC(=O)[C@H](C)NC(=O)[C@H](Cc2c[nH]c3ccccc23)NC(=O)[C@H](Cc2ccc(O)cc2)NC(=O)[C@H](C(C)C)NC1=O)[C@@H](C)O (single isomer, unassigned) [compound 146] | < 0.01 | < 0.01 | 0.1 to 1 | 0.01 to 0.1 | – | – | – | – |
| CC(=O)N[C@@H](CC(C)C)C(=O)N[C@H](C(=O)N[C@@H](Cc1ccccc1)C(=O)N[C@]1(C)CCCCCCC=CCCC[C@@](C)(C(=O)N[C@@H](CO)C(=O)N[C@@H](C)C(=O)N[C@@H](C)C(N)=O)NC(=O)[C@H](CC(C)C)NC(=O)[C@H](CCC(N)=O)NC(=O)[C@H](C)NC(=O)[C@H](Cc2c[nH]c3ccccc23)NC(=O)[C@H](CO)NC(=O)[C@H](C)NC1=O)[C@@H](C)O (single isomer, unassigned) [compound 167] | 0.01 to 0.1 | < 0.01 | 0.1 to 1 | 0.1 to 1 | – | – | – | – |
| CC[C@H](C)[C@H](NC(C)=O)C(=O)N[C@H](C(=O)N[C@@H](Cc1ccccc1)C(=O)N[C@]1(C)CCCCCCC=CCCC[C@@](C)(C(=O)N[C@@H](C)C(=O)N[C@@H](C)C(=O)N[C@H](C(=O)N[C@H](C)C(N)=O)[C@@H](C)CC)NC(=O)[C@H](CC(C)C)NC(=O)[C@H](CCC(N)=O)NC(=O)[C@H](C)NC(=O)[C@H](Cc2c[nH]c3ccccc23)NC(=O)[C@H](Cc2c[nH]cn2)NC(=O)[C@H](CCC(=O)O)NC1=O)[C@@H](C)O (single isomer, unassigned) [compound 173] | < 0.01 | < 0.01 | 0.1 to 1 | 0.01 to 0.1 | – | – | – | – |
| CC[C@H](C)[C@H](NC(C)=O)C(=O)N[C@H](C(=O)N[C@@H](Cc1ccccc1)C(=O)N[C@]1(C)CCCCCCC=CCCC[C@@](C)(C(=O)N[C@@H](C)C(=O)N[C@@H](Cc2c[nH]cn2)C(=O)N[C@@H](Cc2ccccc2)C(=O)N[C@@H](C)C(N)=O)NC(=O)[C@H](CC(C)C)NC(=O)[C@H](CCC(N)=O)NC(=O)[C@H](C)NC(=O)[C@H](Cc2c[nH]c3ccccc23)NC(=O)[C@H](Cc2ccc(O)cc2)NC(=O)[C@H](Cc2ccccc2)NC1=O)[C@@H](C)O (single isomer, unassigned) [compound 185] | 0.01 to 0.1 | < 0.01 | > 1 | 0.1 to 1 | – | – | – | – |
| CC[C@H](C)[C@H](NC(C)=O)C(=O)N[C@H](C(=O)N[C@@H](Cc1ccccc1)C(=O)N[C@]1(C)CCCCCCC=CCCC[C@@](C)(C(=O)N[C@@H](C)C(=O)N[C@@H](Cc2c[nH]cn2)C(=O)N[C@@H](Cc2ccccc2)C(=O)N[C@@H](C)C(N)=O)NC(=O)[C@H](CC(C)C)NC(=O)[C@H](CCC(N)=O)NC(=O)[C@H](C)NC(=O)[C@H](Cc2c[nH]c3ccccc23)NC(=O)[C@H](Cc2c[nH]cn2)NC(=O)[C@H](CCC(=O)O)NC1=O)[C@@H](C)O (single isomer, unassigned) [compound 189] | 0.01 to 0.1 | < 0.01 | 0.1 to 1 | 0.01 to 0.1 | – | – | – | – |
| CC[C@H](C)[C@H](NC(C)=O)C(=O)N[C@H](C(=O)N[C@@H](Cc1ccccc1)C(=O)N[C@]1(C)CCCCCCC=CCCC[C@@](C)(C(=O)N[C@@H](C)C(=O)N[C@@H](Cc2c[nH]cn2)C(=O)N[C@@H](Cc2ccccc2)C(=O)N[C@@H](C)C(N)=O)NC(=O)[C@H](CC(C)C)NC(=O)[C@H](CCC(N)=O)NC(=O)[C@H](C(C)C)NC(=O)[C@H](Cc2c[nH]c3ccccc23)NC(=O)[C@H](Cc2c[nH]cn2)NC(=O)[C@H](CCC(=O)O)NC1=O)[C@@H](C)O (single isomer, unassigned) [compound 194] | 0.01 to 0.1 | < 0.01 | 0.1 to 1 | 0.1 to 1 | – | – | – | – |
| CC(=O)N[C@@H](CC(C)C)C(=O)N[C@H](C(=O)N[C@@H](Cc1ccccc1)C(=O)N[C@]1(C)CCCCCCC=CCCC[C@@](C)(C(=O)N[C@@H](CO)C(=O)N[C@@H](C)C(=O)N[C@@H](C)C(N)=O)NC(=O)[C@H](CC(C)C)NC(=O)[C@H](C)NC(=O)[C@H](C)NC(=O)[C@H](Cc2c[nH]c3ccccc23)NC(=O)[C@H](CCC(=O)O)NC(=O)[C@H](C)NC1=O)[C@@H](C)O (single isomer, unassigned) [compound 199] | – | – | – | – | 0.01 to 0.1 | < 0.01 | 0.1 to 1 | 0.1 to 1 |
| CC(=O)N[C@@H](CC(C)C)C(=O)N[C@H](C(=O)N[C@@H](Cc1ccccc1)C(=O)N[C@]1(C)CCCCCCC=CCCC[C@@](C)(C(=O)N[C@@H](C)C(=O)N[C@@H](C)C(=O)N[C@@H](Cc2ccccc2)C(=O)N[C@H](C)C(N)=O)NC(=O)[C@H](CC(C)C)NC(=O)[C@H](CCC(N)=O)NC(=O)[C@H](C)NC(=O)[C@H](Cc2c[nH]c3ccccc23)NC(=O)[C@H](Cc2ccc(O)cc2)NC(=O)[C@H](C)NC1=O)[C@@H](C)O (single isomer, unassigned) [compound 210] | < 0.01 | < 0.01 | 0.1 to 1 | 0.01 to 0.1 | – | – | – | – |
| CC(=O)N[C@@H](CC(C)C)C(=O)N[C@H](C(=O)N[C@@H](Cc1ccccc1)C(=O)N[C@]1(C)CCCCCCC=CCCC[C@@](C)(C(=O)N[C@@H](C)C(=O)N[C@@H](C)C(=O)N[C@@H](CC(C)C)C(=O)N[C@H](C)C(N)=O)NC(=O)[C@H](CC(C)C)NC(=O)[C@H](CCC(N)=O)NC(=O)[C@H](C)NC(=O)[C@H](Cc2c[nH]c3ccccc23)NC(=O)[C@H](Cc2ccc(O)cc2)NC(=O)[C@H](C)NC1=O)[C@@H](C)O (single isomer, unassigned) [compound 215] | 0.01 to 0.1 | < 0.01 | 0.1 to 1 | 0.01 to 0.1 | – | – | – | – |

Further lines, with some results ahead:

| IC50 (MDM2; read-out: IC50 (MDM2)) [µM] | Ki (MDM2; read-out: Ki (MDM2)) [µM] | IC50 (MDMX; read-out: IC50 (MDMX)) [µM] | Ki (MDMX; read-out: Ki (MDMX)) [µM] | SMILES | IC50 (MDM2; IC50 (MDM2)) [µM] | Ki (MDM2; Ki (MDM2)) [µM] | IC50 (MDMX; IC50 (MDMX)) [µM] | Ki (MDMX; Ki (MDMX)) [µM] |
| --- | --- | --- | --- | --- | --- | --- | --- | --- |
| < 0.01 | < 0.01 | 0.1 to 1 | 0.01 to 0.1 | CC(=O)N[C@@H](CC(C)C)C(=O)N[C@H](C(=O)N[C@@H](Cc1cccc(Cl)c1)C(=O)N[C@]1(C)CCCCCCC=CCCC[C@@](C)(C(=O)N[C@@H](CO)C(=O)N[C@@H](C)C(=O)N[C@@H](C)C(N)=O)NC(=O)[C@H](CC(C)C)NC(=O)[C@H](CCC(N)=O)NC(=O)[C@H](C)NC(=O)[C@H](Cc2c[nH]c3ccccc23)NC(=O)[C@H](Cc2ccc(O)cc2)NC(=O)[C@H](CCC(=O)O)NC1=O)[C@@H](C)O (single isomer, unassigned) [compound 156] | – | – | – | – |
| < 0.01 | < 0.01 | 0.1 to 1 | 0.01 to 0.1 | CC(=O)N[C@@H](CC(C)C)C(=O)N[C@H](C(=O)N[C@@H](Cc1ccccc1)C(=O)N[C@]1(C)CCCCCCC=CCCC[C@@](C)(C(=O)N[C@@H](CO)C(=O)N[C@@H](C)C(=O)N[C@@H](C)C(N)=O)NC(=O)[C@H](CC(C)C)NC(=O)[C@H](CCC(N)=O)NC(=O)[C@H](C)NC(=O)[C@H](Cc2c[nH]c3ccccc23)NC(=O)[C@H](CCC(=O)O)NC(=O)[C@H](C)NC1=O)[C@@H](C)O (single isomer, unassigned) [compound 166] | – | – | – | – |
| 0.01 to 0.1 | < 0.01 | 0.1 to 1 | 0.1 to 1 | CC(=O)N[C@@H](CC(C)C)C(=O)N[C@H](C(=O)N[C@@H](Cc1ccccc1)C(=O)N[C@]1(C)CCCCCCC=CCCC[C@@](C)(C(=O)N[C@@H](CO)C(=O)N[C@@H](C)C(=O)N[C@@H](C)C(N)=O)NC(=O)[C@H](CC(C)C)NC(=O)[C@H](C)NC(=O)[C@H](C)NC(=O)[C@H](Cc2c[nH]c3ccccc23)NC(=O)[C@H](CO)NC(=O)[C@H](C)NC1=O)[C@@H](C)O (single isomer, unassigned) [compound 201] | – | – | – | – |
| 0.01 to 0.1 | < 0.01 | 0.1 to 1 | 0.01 to 0.1 | CC[C@H](C)[C@H](NC(=O)[C@H](Cc1c[nH]cn1)NC(=O)[C@H](C)NC(=O)[C@]1(C)CCCC=CCCCCCC[C@@](C)(NC(=O)[C@H](Cc2ccccc2)NC(=O)[C@@H](NC(=O)[C@H](CC(C)C)NC(C)=O)[C@@H](C)O)C(=O)N[C@@H](CCC(=O)O)C(=O)N[C@@H](Cc2c[nH]cn2)C(=O)N[C@@H](Cc2c[nH]c3ccccc23)C(=O)N[C@@H](C)C(=O)N[C@@H](CCC(N)=O)C(=O)N[C@@H](CC(C)C)C(=O)N1)C(=O)N[C@H](C)C(N)=O (single isomer, unassigned) [compound 206] | – | – | – | – |
| < 0.01 | < 0.01 | 0.1 to 1 | 0.01 to 0.1 | CC(=O)N[C@@H](CC(C)C)C(=O)N[C@H](C(=O)N[C@@H](Cc1ccccc1)C(=O)N[C@]1(C)CCCCCCC=CCCC[C@@](C)(C(=O)N[C@@H](C)C(=O)N[C@@H](C)C(=O)N[C@H](C(=O)N[C@H](C)C(N)=O)C(C)C)NC(=O)[C@H](CC(C)C)NC(=O)[C@H](CCC(N)=O)NC(=O)[C@H](C)NC(=O)[C@H](Cc2c[nH]c3ccccc23)NC(=O)[C@H](Cc2ccc(O)cc2)NC(=O)[C@H](C)NC1=O)[C@@H](C)O (single isomer, unassigned) [compound 213] | – | – | – | – |
